From publication PMC11345841, “Exploring 2-Sulfonylpyrimidine Warheads as Acrylamide Surrogates for Targeted Covalent Inhibition: A BTK Story” (Journal of Medicinal Chemistry, 2024)
Where two headings read alike, the source gives them in different places.

What was measured:
INSR = target: T1, INSR (Homo sapiens, UniProt P06213); test: KINOMEscan ScanTK; assay type: binding
T1 construct: purchased Eurofins DiscoverX KINOMEscan (scanTK)

CTK = target: T2, CTK (Homo sapiens, UniProt P42679); test: KINOMEscan ScanTK; assay type: binding
T2 construct: purchased Eurofins DiscoverX KINOMEscan (scanTK)
T2 sequence (P42679 1-507): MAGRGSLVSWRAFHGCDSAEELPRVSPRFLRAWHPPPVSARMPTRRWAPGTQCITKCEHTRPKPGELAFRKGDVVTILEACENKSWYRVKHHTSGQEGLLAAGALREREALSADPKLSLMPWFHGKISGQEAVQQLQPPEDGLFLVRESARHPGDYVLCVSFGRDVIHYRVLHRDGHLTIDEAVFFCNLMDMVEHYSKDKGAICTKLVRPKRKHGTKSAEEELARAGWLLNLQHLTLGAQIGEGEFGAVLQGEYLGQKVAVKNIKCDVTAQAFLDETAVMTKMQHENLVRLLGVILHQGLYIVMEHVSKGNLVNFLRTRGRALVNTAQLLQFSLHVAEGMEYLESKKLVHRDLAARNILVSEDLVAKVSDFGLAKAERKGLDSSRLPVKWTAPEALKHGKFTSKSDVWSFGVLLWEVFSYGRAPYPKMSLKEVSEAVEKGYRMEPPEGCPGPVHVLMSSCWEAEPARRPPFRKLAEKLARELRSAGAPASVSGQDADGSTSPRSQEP

wild-type BTK = wild-type BTK (Homo sapiens, UniProt Q06187); test: NanoBRET target engagement assay in HEK293 cells
[1] = target: T3, JAK3(JH1domain-catalytic) (Homo sapiens, UniProt P52333); test: KINOMEscan ScanTK; assay type: binding; conditions: for difference in %Control from compound Ib at 1 µM / remaining binding at 1 µM: JAK3(JH1domain-catalytic); for inhibition at 1 µM: ScanTK
T3 construct: JAK3(JH1domain-catalytic); purchased Eurofins DiscoverX KINOMEscan (scanTK)

DDR1 = target: T4, DDR1 (Homo sapiens, UniProt Q08345); test: KINOMEscan ScanTK; assay type: binding
T4 construct: purchased Eurofins DiscoverX KINOMEscan (scanTK)

ROS1 = target: T5, ROS1 (Homo sapiens, UniProt P08922); test: KINOMEscan ScanTK; assay type: binding; conditions: for %Control difference versus reference Ib at 1 µM: read-out: % difference (compound - Ib %Control)
T5 construct: purchased Eurofins DiscoverX KINOMEscan (scanTK)

ABL1-nonphosphorylated = target: T6, ABL1-nonphosphorylated (Homo sapiens, UniProt P00519); test: KINOMEscan ScanTK; assay type: binding
T6 construct: purchased Eurofins DiscoverX KINOMEscan (scanTK)

MET(M1250T) = target: T7, MET(M1250T) (Homo sapiens, UniProt P08581, M1250T); test: KINOMEscan ScanTK; assay type: binding
T7 construct: purchased Eurofins DiscoverX KINOMEscan (scanTK)

FER = target: T8, FER (Homo sapiens, UniProt P16591); test: KINOMEscan ScanTK; assay type: binding
T8 construct: purchased Eurofins DiscoverX KINOMEscan (scanTK)

EGFR(L858R) = target: T9, EGFR(L858R) (Homo sapiens, UniProt P00533, L858R); test: KINOMEscan ScanTK; assay type: binding
T9 construct: purchased Eurofins DiscoverX KINOMEscan (scanTK)

KIT(V559D,V654A) = target: T10, KIT(V559D,V654A) (Homo sapiens, UniProt P10721, V559D/V654A); test: KINOMEscan ScanTK; assay type: binding
T10 construct: purchased Eurofins DiscoverX KINOMEscan (scanTK)

BTK Y223 phosphorylation = test: Immunoblotting, anti-IgM-induced signaling in OCI-LY7 cells; conditions: 500 nM, 1 h
Experimental: We also investigated the effects of the compounds (at 500 nM) on sIgM signaling by analyzing the phosphorylation status of key signaling molecules activated downstream of the BCR.
Secondary antibodies were horseradish peroxidase-conjugated antibodies (GE Healthcare). Images were captured using the Amersham ImageQuant 800 System and quantified using ImageJ (http://imagej.nih.gov/ij/). Expression of phosphorylated proteins was normalized to the equivalent total protein with values for DMSO/anti-IgM set to 100%.

FLT3 = target: T11, FLT3 (Homo sapiens, UniProt P36888); test: KINOMEscan ScanTK; assay type: binding
T11 construct: purchased Eurofins DiscoverX KINOMEscan (scanTK)
T11 sequence (P36888 27-993): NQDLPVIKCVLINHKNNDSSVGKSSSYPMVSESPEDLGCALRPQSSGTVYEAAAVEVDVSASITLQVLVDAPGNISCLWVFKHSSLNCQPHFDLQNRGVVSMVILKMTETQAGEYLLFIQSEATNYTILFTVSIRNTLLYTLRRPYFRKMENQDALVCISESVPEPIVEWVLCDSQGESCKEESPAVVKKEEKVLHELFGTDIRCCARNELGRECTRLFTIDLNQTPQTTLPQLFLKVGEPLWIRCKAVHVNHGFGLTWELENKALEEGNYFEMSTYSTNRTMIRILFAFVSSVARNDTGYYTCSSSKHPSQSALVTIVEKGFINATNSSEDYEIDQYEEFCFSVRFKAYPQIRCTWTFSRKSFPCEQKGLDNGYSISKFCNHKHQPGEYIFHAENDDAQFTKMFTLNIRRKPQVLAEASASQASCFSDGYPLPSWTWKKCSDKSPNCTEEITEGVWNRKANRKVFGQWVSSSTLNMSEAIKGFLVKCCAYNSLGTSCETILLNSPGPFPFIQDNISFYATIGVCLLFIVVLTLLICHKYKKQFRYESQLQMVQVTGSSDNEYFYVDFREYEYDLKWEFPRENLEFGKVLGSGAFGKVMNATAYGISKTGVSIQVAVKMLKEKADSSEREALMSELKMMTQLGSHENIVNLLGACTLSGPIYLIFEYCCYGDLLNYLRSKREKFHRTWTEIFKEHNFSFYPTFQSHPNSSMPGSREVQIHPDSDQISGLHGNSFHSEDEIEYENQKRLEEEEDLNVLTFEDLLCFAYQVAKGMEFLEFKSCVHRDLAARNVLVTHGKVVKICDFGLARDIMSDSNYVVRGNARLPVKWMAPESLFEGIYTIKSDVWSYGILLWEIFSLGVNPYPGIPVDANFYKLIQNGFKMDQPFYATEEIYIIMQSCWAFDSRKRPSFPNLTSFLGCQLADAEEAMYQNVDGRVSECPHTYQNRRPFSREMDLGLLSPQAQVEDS

FRK = target: T12, FRK (Homo sapiens, UniProt P42685); test: KINOMEscan ScanTK; assay type: binding
T12 construct: purchased Eurofins DiscoverX KINOMEscan (scanTK)

LTK = target: T13, LTK (Homo sapiens, UniProt P29376); test: KINOMEscan ScanTK; assay type: binding
T13 construct: purchased Eurofins DiscoverX KINOMEscan (scanTK)

FLT3(ITD,D835V) = test: KINOMEscan ScanTK; assay type: binding; conditions: for % difference (compound - Ib %Control) / %Control: @1000nM

T12 sequence (P42685 whole entry): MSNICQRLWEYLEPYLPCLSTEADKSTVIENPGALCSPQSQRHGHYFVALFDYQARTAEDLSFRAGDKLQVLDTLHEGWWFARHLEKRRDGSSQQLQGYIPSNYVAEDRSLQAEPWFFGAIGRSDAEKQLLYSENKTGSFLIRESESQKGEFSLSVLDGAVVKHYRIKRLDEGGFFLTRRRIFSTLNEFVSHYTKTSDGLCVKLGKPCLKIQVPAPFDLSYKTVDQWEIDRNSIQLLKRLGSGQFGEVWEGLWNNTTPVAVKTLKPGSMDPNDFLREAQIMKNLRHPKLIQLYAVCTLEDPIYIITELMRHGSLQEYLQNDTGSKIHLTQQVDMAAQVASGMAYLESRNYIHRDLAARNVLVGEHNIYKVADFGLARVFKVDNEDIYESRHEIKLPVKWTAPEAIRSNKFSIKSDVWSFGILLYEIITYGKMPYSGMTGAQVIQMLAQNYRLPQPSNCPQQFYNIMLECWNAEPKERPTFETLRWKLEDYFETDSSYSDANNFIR
T4 sequence (Q08345 19-913): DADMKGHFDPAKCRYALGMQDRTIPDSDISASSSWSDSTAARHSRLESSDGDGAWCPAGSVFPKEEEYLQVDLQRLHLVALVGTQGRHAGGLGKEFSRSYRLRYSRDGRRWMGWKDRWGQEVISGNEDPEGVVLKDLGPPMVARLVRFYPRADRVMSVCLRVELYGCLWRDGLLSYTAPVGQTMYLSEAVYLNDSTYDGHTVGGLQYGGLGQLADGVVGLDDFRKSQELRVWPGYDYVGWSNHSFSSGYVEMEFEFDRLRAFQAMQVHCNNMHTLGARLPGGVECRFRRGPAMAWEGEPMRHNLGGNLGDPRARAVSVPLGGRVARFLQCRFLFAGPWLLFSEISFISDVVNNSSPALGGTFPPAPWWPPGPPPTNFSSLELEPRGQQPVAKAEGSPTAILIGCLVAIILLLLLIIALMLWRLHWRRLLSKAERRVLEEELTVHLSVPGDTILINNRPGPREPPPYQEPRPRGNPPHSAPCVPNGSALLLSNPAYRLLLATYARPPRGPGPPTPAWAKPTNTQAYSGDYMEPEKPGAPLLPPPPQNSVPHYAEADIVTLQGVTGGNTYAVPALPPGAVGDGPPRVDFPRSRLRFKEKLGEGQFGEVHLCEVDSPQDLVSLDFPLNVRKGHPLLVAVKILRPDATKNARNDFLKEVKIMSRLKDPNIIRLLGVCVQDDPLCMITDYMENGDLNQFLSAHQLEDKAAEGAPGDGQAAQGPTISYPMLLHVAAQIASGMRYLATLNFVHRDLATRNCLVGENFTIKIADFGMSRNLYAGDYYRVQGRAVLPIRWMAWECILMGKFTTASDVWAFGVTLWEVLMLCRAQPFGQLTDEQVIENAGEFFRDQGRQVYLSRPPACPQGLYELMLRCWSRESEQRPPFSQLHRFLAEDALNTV
T10 sequence (P10721 26-976 V559D/V654A): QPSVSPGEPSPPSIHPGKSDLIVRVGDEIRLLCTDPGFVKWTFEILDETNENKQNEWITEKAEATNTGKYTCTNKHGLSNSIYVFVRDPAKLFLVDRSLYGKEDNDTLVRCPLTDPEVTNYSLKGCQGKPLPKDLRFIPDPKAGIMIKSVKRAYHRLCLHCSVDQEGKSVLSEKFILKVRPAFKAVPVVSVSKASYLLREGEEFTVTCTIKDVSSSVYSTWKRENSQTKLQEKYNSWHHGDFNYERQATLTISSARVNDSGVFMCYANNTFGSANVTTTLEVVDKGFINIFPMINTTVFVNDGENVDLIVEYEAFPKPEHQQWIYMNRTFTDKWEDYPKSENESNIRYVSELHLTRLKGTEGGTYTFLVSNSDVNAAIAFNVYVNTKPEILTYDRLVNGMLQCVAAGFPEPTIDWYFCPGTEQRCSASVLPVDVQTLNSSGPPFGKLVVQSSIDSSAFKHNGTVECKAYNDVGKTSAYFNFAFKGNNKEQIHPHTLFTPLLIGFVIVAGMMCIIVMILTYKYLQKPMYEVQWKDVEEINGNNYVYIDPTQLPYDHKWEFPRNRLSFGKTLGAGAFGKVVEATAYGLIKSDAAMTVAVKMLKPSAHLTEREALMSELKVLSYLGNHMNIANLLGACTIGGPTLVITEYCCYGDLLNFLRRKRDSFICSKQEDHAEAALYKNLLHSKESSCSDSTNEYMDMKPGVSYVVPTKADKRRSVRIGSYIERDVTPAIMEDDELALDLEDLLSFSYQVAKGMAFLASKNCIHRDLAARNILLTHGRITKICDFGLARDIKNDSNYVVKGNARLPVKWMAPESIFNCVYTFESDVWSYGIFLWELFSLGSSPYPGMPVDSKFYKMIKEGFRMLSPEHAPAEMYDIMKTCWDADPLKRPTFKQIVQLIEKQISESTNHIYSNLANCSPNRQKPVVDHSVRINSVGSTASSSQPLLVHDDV
T6 sequence (P00519 whole entry): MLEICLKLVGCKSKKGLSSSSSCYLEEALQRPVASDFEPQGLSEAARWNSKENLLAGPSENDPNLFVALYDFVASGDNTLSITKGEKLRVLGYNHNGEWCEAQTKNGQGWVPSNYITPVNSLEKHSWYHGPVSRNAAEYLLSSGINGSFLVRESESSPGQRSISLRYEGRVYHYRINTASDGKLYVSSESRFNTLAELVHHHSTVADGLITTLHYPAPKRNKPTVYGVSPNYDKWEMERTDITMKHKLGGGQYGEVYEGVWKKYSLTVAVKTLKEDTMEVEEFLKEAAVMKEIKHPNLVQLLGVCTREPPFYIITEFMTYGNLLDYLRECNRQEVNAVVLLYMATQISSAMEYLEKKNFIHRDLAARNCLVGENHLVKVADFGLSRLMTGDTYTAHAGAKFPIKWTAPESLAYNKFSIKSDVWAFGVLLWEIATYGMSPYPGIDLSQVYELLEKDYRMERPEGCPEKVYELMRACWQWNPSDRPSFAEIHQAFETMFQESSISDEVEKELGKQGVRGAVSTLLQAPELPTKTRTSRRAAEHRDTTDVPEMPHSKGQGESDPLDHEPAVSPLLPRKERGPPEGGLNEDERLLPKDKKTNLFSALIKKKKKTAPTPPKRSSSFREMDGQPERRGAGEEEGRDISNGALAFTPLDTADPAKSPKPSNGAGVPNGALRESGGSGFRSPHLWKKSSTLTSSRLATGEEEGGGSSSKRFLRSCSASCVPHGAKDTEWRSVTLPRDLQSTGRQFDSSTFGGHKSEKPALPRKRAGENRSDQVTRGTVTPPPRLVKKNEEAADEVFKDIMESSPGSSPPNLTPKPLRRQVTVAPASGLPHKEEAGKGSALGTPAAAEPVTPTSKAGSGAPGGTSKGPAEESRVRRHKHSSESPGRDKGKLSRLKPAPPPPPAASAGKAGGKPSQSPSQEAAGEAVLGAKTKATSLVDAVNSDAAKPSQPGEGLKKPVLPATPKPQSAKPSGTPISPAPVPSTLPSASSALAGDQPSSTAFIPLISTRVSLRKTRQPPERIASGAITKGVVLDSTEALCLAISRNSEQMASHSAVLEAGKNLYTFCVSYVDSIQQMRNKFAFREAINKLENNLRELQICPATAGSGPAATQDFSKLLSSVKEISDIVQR
T1 sequence (P06213 28-1382): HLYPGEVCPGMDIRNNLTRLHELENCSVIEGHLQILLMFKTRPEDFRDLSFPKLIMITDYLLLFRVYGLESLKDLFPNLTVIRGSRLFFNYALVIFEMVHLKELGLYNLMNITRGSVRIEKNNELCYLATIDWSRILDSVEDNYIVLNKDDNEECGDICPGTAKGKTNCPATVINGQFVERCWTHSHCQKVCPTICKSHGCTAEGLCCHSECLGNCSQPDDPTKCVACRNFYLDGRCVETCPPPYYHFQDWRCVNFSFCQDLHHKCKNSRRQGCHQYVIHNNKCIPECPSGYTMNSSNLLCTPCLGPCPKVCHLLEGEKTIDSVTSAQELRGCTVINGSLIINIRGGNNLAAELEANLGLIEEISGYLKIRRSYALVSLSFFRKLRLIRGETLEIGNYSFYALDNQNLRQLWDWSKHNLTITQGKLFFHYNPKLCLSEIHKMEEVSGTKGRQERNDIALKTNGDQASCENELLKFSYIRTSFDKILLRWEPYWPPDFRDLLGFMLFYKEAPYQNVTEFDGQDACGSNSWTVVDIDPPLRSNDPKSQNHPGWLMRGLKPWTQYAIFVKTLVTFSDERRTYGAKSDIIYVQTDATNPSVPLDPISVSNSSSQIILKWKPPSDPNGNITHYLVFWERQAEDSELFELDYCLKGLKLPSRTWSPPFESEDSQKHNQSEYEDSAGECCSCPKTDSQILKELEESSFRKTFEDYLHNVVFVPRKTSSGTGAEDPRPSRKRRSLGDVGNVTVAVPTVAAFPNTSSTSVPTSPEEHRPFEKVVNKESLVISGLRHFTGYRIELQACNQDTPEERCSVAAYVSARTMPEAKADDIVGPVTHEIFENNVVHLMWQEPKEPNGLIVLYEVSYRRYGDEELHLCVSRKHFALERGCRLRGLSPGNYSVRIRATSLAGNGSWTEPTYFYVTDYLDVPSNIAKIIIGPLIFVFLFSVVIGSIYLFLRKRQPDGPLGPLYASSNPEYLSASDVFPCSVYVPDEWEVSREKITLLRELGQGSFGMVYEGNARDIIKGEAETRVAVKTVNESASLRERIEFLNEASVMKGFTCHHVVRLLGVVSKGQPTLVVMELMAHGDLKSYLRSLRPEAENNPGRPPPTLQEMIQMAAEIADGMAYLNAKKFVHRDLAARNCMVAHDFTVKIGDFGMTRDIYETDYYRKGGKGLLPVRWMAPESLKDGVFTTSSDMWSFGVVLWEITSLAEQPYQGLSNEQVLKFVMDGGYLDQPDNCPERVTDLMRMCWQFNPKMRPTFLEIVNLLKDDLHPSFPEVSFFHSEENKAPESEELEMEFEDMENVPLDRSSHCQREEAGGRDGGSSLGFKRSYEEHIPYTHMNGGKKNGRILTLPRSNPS

## COC(=O)c1cnc(S(C)(=O)=O)nc1N1CCCC(n2nc(-c3ccc(Oc4ccccc4)cc3)c3c(N)ncnc32)C1 (centres unmarked) [Compound 8b, Methyl 4-(3-(4-Amino-3-(4-phenoxyphenyl)-1H-pyrazolo[3,4-d]pyrimidin-1-yl)piperidin-1-yl)-2-(methylsulfonyl)pyrimidine-5-carboxylate]
INSR; @1000nM
  difference in %Control versus compound Ib at 1 µM: -5%
INSR; @1000nM, read-out: %Control
  remaining binding at 1 µM: 95%
INSR; read-out: %Control @1000nM
  remaining binding at 1 µM: 95%
CTK; @1000nM
  difference in %Control versus compound Ib at 1 µM: 8%
CTK; @1000nM, read-out: %Control
  remaining binding at 1 µM: 88%
CTK; read-out: %Control @1000nM
  remaining binding at 1 µM: 88%
wild-type BTK
  IC50: 38 ± 6 nM
[1]; @1000nM
  difference in %Control from compound Ib at 1 µM: 94.5%
[1]; @1000nM, read-out: %Control
  remaining binding at 1 µM: 100%
[1]; read-out: %Control @1000nM
  remaining binding at 1 µM: 100%
[1]
  inhibition at 1 µM: < 1%
DDR1; @1000nM
  difference in %Control from compound Ib at 1 µM: -18%
DDR1; @1000nM, read-out: %Control
  remaining binding at 1 µM: 60%
DDR1; read-out: %Control @1000nM
  remaining binding at 1 µM: 60%
ROS1; @1000nM
  %Control difference versus reference Ib at 1 µM: -11%
ROS1; @1000nM, read-out: %Control
  remaining binding at 1 µM: 86%
ROS1; read-out: %Control @1000nM
  remaining binding at 1 µM: 86%
ABL1-nonphosphorylated; @1000nM
  difference in %Control from reference compound Ib at 1 µM: 56.5%
ABL1-nonphosphorylated; @1000nM, read-out: %Control
  remaining binding at 1 µM: 65%
ABL1-nonphosphorylated; read-out: %Control @1000nM
  remaining binding at 1 µM: 65%
MET(M1250T); @1000nM, read-out: %Control
  remaining binding at 1 µM: 96%
MET(M1250T); read-out: %Control @1000nM
  remaining binding at 1 µM: 96%
FER; @1000nM
  difference in %Control versus compound Ib at 1 µM: -10%
FER; @1000nM, read-out: %Control
  remaining binding at 1 µM: 90%
FER; read-out: %Control @1000nM
  remaining binding at 1 µM: 90%
EGFR(L858R); @1000nM
  %Control difference from compound Ib at 1 µM: 72.1%
EGFR(L858R); @1000nM, read-out: %Control
  remaining binding at 1 µM: 74%
EGFR(L858R); read-out: %Control @1000nM
  remaining binding at 1 µM: 74%
KIT(V559D,V654A); @1000nM, read-out: %Control
  remaining binding at 1 µM: 86%
KIT(V559D,V654A); read-out: %Control @1000nM
  remaining binding at 1 µM: 86%
BTK Y223 phosphorylation
  anti-IgM-induced BTK Y223 phosphorylation: selectively reduced BTK Y^223 phosphorylation
FLT3; @1000nM
  difference in %Control from compound Ib at 1 µM: 47%
FLT3; @1000nM, read-out: %Control
  remaining binding at 1 µM: 80%
FLT3; read-out: %Control @1000nM
  remaining binding at 1 µM: 80%
FRK; @1000nM
  difference in %Control versus compound Ib at 1 µM: 69.7%
FRK; @1000nM, read-out: %Control
  remaining binding at 1 µM: 79%
FRK; read-out: %Control @1000nM
  remaining binding at 1 µM: 79%
LTK; @1000nM, read-out: %Control
  remaining binding at 1 µM: 94%
LTK; read-out: %Control @1000nM
  remaining binding at 1 µM: 94%
FLT3(ITD,D835V)
  %Control @1000nM: 93%
  % difference (compound - Ib %Control): 16%
  %Control: 93%

## CCOC(=O)c1cnc(S(C)(=O)=O)nc1N1CCC[C@@H](n2nc(-c3ccc(Oc4ccccc4)cc3)c3c(N)ncnc32)C1 [Compound 8c, Ethyl (R)-4-(3-(4-Amino-3-(4-phenoxyphenyl)-1H-pyrazolo[3,4-d]pyrimidin-1-yl)piperidin-1-yl)-2-(methylsulfonyl)pyrimidine-5-carboxylate]
INSR; @1000nM
  difference in %Control versus compound Ib at 1 µM: 0%
INSR; @1000nM, read-out: %Control
  remaining binding at 1 µM: 100%
INSR; read-out: %Control @1000nM
  remaining binding at 1 µM: 100%
CTK; @1000nM
  difference in %Control versus compound Ib at 1 µM: -6%
CTK; @1000nM, read-out: %Control
  remaining binding at 1 µM: 74%
CTK; read-out: %Control @1000nM
  remaining binding at 1 µM: 74%
[1]; @1000nM
  difference in %Control from compound Ib at 1 µM: 94.5%
[1]; @1000nM, read-out: %Control
  remaining binding at 1 µM: 100%
[1]; read-out: %Control @1000nM
  remaining binding at 1 µM: 100%
[1]
  inhibition at 1 µM: < 1%
DDR1; @1000nM
  difference in %Control from compound Ib at 1 µM: -14%
DDR1; @1000nM, read-out: %Control
  remaining binding at 1 µM: 64%
DDR1; read-out: %Control @1000nM
  remaining binding at 1 µM: 64%
ROS1; @1000nM
  %Control difference versus reference Ib at 1 µM: 3%
ROS1; @1000nM, read-out: %Control
  remaining binding at 1 µM: 100%
ROS1; read-out: %Control @1000nM
  remaining binding at 1 µM: 100%
ABL1-nonphosphorylated; @1000nM
  difference in %Control from reference compound Ib at 1 µM: 36.5%
ABL1-nonphosphorylated; @1000nM, read-out: %Control
  remaining binding at 1 µM: 45%
ABL1-nonphosphorylated; read-out: %Control @1000nM
  remaining binding at 1 µM: 45%
MET(M1250T); @1000nM, read-out: %Control
  remaining binding at 1 µM: 96%
MET(M1250T); read-out: %Control @1000nM
  remaining binding at 1 µM: 96%
FER; @1000nM
  difference in %Control versus compound Ib at 1 µM: 0%
FER; @1000nM, read-out: %Control
  remaining binding at 1 µM: 100%
FER; read-out: %Control @1000nM
  remaining binding at 1 µM: 100%
EGFR(L858R); @1000nM
  %Control difference from compound Ib at 1 µM: 64.1%
EGFR(L858R); @1000nM, read-out: %Control
  remaining binding at 1 µM: 66%
EGFR(L858R); read-out: %Control @1000nM
  remaining binding at 1 µM: 66%
KIT(V559D,V654A); @1000nM, read-out: %Control
  remaining binding at 1 µM: 97%
KIT(V559D,V654A); read-out: %Control @1000nM
  remaining binding at 1 µM: 97%
BTK Y223 phosphorylation
  anti-IgM-induced BTK Y223 phosphorylation: selectively reduced BTK Y^223 phosphorylation
FLT3; @1000nM
  difference in %Control from compound Ib at 1 µM: 60%
FLT3; @1000nM, read-out: %Control
  remaining binding at 1 µM: 93%
FLT3; read-out: %Control @1000nM
  remaining binding at 1 µM: 93%
FRK; @1000nM
  difference in %Control versus compound Ib at 1 µM: 66.7%
FRK; @1000nM, read-out: %Control
  remaining binding at 1 µM: 76%
FRK; read-out: %Control @1000nM
  remaining binding at 1 µM: 76%
LTK; @1000nM, read-out: %Control
  remaining binding at 1 µM: 100%
LTK; read-out: %Control @1000nM
  remaining binding at 1 µM: 100%
FLT3(ITD,D835V)
  %Control @1000nM: 69%
  % difference (compound - Ib %Control): -8%
  %Control: 69%
